Test results from the supplement of paper PMC10307832.

compound: C(C(=O)C(=O)O)Br [Bromopyruvate] + O=C(CCCCCCC(=O)Nc1ccccc1)NO [Vorinostat] (partner 1 µM); assay: relative viability (nuclei count vs DMSO), 5 days (fraction); higher = more cells survive; details: first compound 1 µM
Procedure, shortened: (§1)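 Relative viability divides the nuclei count in treated wells by that in vehicle wells. Lung cancer cell lines were seeded in 1536-well plates, dosed by pin tool the next day, and fixed and stained after 5 days in one step with final 0.05% Triton X-100, 1% formaldehyde and 1 ug/ml Hoechst. Dosing was a single drug or a fixed anchor-drug dose plus five library-drug doses (not always all listed) in √10 steps, and values are medians of duplicate plates imaged at 4×.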

Cell Line | relative viability
NCI-H522 | 0.93
NCI-H838 | 0.7
NCI-H1650 | 0.549
NCI-H2009 | 0.72
NCI-H1993 | 0.19
PC-14 | 0.755
LCLC-103H | 0.762
NCI-H596 | 0.572
NCI-H2228 | 0.454
EMC-BAC-2 | 0.719
NCI-H2087 | 0.814
HCC-366 | 0.375
NCI-H1666 | 1.01
NCI-H647 | 0.559
LK-2 | 0.333
NCI-H2126 | 0.82
NCI-H2342 | 0.807
SK-MES-1 | 1.08

Cell Line | relative viability
H3255 | 0.941
COR-L23 | 0.381
COR-L 105 | 0.708
IA-LM | 0.964
LOU-NH91 | 1.07
ChaGo-K-1 | 0.818
NCI-H2170 | 0.911
NCI-H3122 | 1.05
HOP-62 | 0.716
HCC-44 | 1.12
SW 900 | 0.393
LU99A | 0.46
BEN | 0.588
HARA | 0.692
NCI-H1648 | 0.324
HCC-78 | 0.493
NCI-H441 | 0.828

same assay, conditions: first compound 3.162 µM

Cell Line | relative viability
NCI-H522 | 1.02
NCI-H838 | 0.684
NCI-H1650 | 0.388
NCI-H2009 | 0.682
NCI-H1993 | 0.862
PC-14 | 0.706
LCLC-103H | 0.757
NCI-H596 | 0.633
NCI-H2228 | 0.723
EMC-BAC-2 | 0.336
NCI-H2087 | 0.551
HCC-366 | 0.368
NCI-H1666 | 0.978
NCI-H647 | 0.724
LK-2 | 0.203
NCI-H2126 | 0.832
NCI-H2342 | 0.806
SK-MES-1 | 1.2

Cell Line | relative viability
H3255 | 0.781
COR-L23 | 0.473
COR-L 105 | 0.68
IA-LM | 0.975
LOU-NH91 | 0.961
ChaGo-K-1 | 0.755
NCI-H2170 | 0.853
NCI-H3122 | 0.991
HOP-62 | 0.579
HCC-44 | 1.04
SW 900 | 0.487
LU99A | 0.526
BEN | 0.581
HARA | 0.511
NCI-H1648 | 0.566
HCC-78 | 0.443
NCI-H441 | 0.856

same assay, conditions: first compound 10 µM

Cell Line | relative viability
NCI-H522 | 1.02
NCI-H838 | 0.652
NCI-H1650 | 0.505
NCI-H2009 | 0.622
NCI-H1993 | 0.83
PC-14 | 0.587
LCLC-103H | 0.818
NCI-H596 | 0.628
NCI-H2228 | 0.764
EMC-BAC-2 | 0.277
NCI-H2087 | 0.751
HCC-366 | 0.408
NCI-H1666 | 1.08
NCI-H647 | 0.399
LK-2 | 0.218
NCI-H2126 | 0.886
NCI-H2342 | 0.7
SK-MES-1 | 1.04

Cell Line | relative viability
H3255 | 0.771
COR-L23 | 0.432
COR-L 105 | 0.645
IA-LM | 1.15
LOU-NH91 | 0.912
ChaGo-K-1 | 0.879
NCI-H2170 | 0.79
NCI-H3122 | 1.11
HOP-62 | 0.569
HCC-44 | 1.07
SW 900 | 0.559
LU99A | 0.567
BEN | 0.485
HARA | 0.628
NCI-H1648 | 0.563
HCC-78 | 0.444
NCI-H441 | 0.761

same assay, conditions: first compound 31.62 µM

Cell Line | relative viability
NCI-H522 | 0.799
NCI-H838 | 0.631
NCI-H1650 | 0.54
NCI-H2009 | 0.546
NCI-H1993 | 0.72
PC-14 | 0.516
LCLC-103H | 0.821
NCI-H596 | 0.584
NCI-H2228 | 0.581
NCI-H2087 | 0.528
HCC-366 | 0.307
NCI-H1666 | 0.931
NCI-H647 | 0.51
LK-2 | 0.297
NCI-H2126 | 0.829
NCI-H2342 | 0.622
SK-MES-1 | 0.94

Cell Line | relative viability
H3255 | 0.763
COR-L23 | 0.387
COR-L 105 | 0.665
IA-LM | 0.861
LOU-NH91 | 1
ChaGo-K-1 | 0.703
NCI-H2170 | 0.802
NCI-H3122 | 0.829
HOP-62 | 0.534
HCC-44 | 1.1
SW 900 | 0.377
LU99A | 0.532
BEN | 0.608
HARA | 0.528
NCI-H1648 | 0.766
HCC-78 | 0.404
NCI-H441 | 0.623

same assay, conditions: first compound 100 µM

Cell Line | relative viability
NCI-H522 | 0.763
NCI-H838 | 0.607
NCI-H1650 | 0.304
NCI-H2009 | 0.266
NCI-H1993 | 0.842
PC-14 | 0.482
LCLC-103H | 0.691
NCI-H596 | 0.757
NCI-H2228 | 0.372
EMC-BAC-2 | 0.389
NCI-H2087 | 0.375
HCC-366 | 0.227
NCI-H1666 | 0.858
NCI-H647 | 0.334
LK-2 | 0.165
NCI-H2126 | 0.639
NCI-H2342 | 0.684
SK-MES-1 | 0.965

Cell Line | relative viability
H3255 | 0.85
COR-L23 | 0.255
COR-L 105 | 0.411
IA-LM | 0.696
LOU-NH91 | 1
ChaGo-K-1 | 0.67
NCI-H2170 | 0.705
NCI-H3122 | 0.718
HOP-62 | 0.428
HCC-44 | 1.13
SW 900 | 0.476
LU99A | 0.409
BEN | 0.411
HARA | 0.37
NCI-H1648 | 0.314
HCC-78 | 0.427
NCI-H441 | 0.607

compound: CC(O)(CS(=O)(=O)c1ccc(F)cc1)C(=O)Nc1ccc(C#N)c(C(F)(F)F)c1 [Bicalutamide] + Cc1cc(Nc2cc(N3CCN(C)CC3)nc(Sc3ccc(NC(=O)C4CC4)cc3)n2)n[nH]1 [Tozasertib] (partner 0.1 µM); assay: as above; details: first compound 0.08 µM
Procedure, shortened: as §1

Cell Line | relative viability
NCI-H522 | 0.552
NCI-H838 | 0.274
NCI-H1650 | 0.501
NCI-H2009 | 0.777
NCI-H1993 | 0.567
PC-14 | 0.643
LCLC-103H | 0.546
NCI-H596 | 0.897
NCI-H2228 | 0.208
EMC-BAC-2 | 0.346
NCI-H2087 | 0.234
HCC-366 | 0.133
NCI-H1666 | 0.6
NCI-H647 | 0.3
LK-2 | 0.19
NCI-H2126 | 0.939
NCI-H2342 | 0.496

Cell Line | relative viability
SK-MES-1 | 1.08
H3255 | 0.743
COR-L23 | 0.253
COR-L 105 | 0.391
LOU-NH91 | 0.696
ChaGo-K-1 | 0.219
NCI-H2170 | 0.728
NCI-H3122 | 0.422
HOP-62 | 0.419
HCC-44 | 1.06
SW 900 | 0.651
LU99A | 0.279
BEN | 0.475
HARA | 0.128
HCC-78 | 0.43
NCI-H441 | 0.496

same assay, conditions: first compound 0.253 µM

Cell Line | relative viability
NCI-H522 | 0.627
NCI-H1623 | 0.445
NCI-H838 | 0.279
NCI-H1650 | 0.395
NCI-H2009 | 0.664
NCI-H1993 | 0.581
PC-14 | 0.616
LCLC-103H | 0.412
NCI-H596 | 0.82
NCI-H2228 | 0.349
EMC-BAC-2 | 0.285
NCI-H2087 | 0.226
HCC-366 | 0.0841
NCI-H1666 | 0.562
NCI-H647 | 0.264
LK-2 | 0.178
NCI-H2126 | 0.811
NCI-H2342 | 0.564

Cell Line | relative viability
SK-MES-1 | 0.853
H3255 | 0.439
COR-L23 | 0.196
COR-L 105 | 0.348
LOU-NH91 | 0.516
ChaGo-K-1 | 0.238
NCI-H2170 | 0.696
NCI-H3122 | 0.408
HOP-62 | 0.402
HCC-44 | 0.874
SW 900 | 0.556
LU99A | 0.238
BEN | 0.533
HARA | 0.099
NCI-H1648 | 0.496
HCC-78 | 0.351
NCI-H441 | 0.689

same assay, conditions: first compound 0.8 µM

Cell Line | relative viability
NCI-H522 | 0.597
NCI-H1623 | 0.471
NCI-H838 | 0.289
NCI-H1650 | 0.341
NCI-H2009 | 0.723
NCI-H1993 | 0.727
PC-14 | 0.744
LCLC-103H | 0.468
NCI-H596 | 0.998
NCI-H2228 | 0.202
EMC-BAC-2 | 0.289
NCI-H2087 | 0.262
HCC-366 | 0.0976
NCI-H1666 | 0.625
NCI-H647 | 0.293
LK-2 | 0.152
NCI-H2126 | 0.944

Cell Line | relative viability
NCI-H2342 | 0.5
SK-MES-1 | 0.867
COR-L23 | 0.172
COR-L 105 | 0.408
LOU-NH91 | 0.798
ChaGo-K-1 | 0.212
NCI-H2170 | 0.716
NCI-H3122 | 0.445
HOP-62 | 0.425
HCC-44 | 0.746
SW 900 | 0.592
LU99A | 0.297
BEN | 0.527
HARA | 0.103
NCI-H1648 | 0.602
HCC-78 | 0.472
NCI-H441 | 0.631

same assay, conditions: first compound 2.53 µM

Cell Line | relative viability
NCI-H522 | 0.543
NCI-H1623 | 0.463
NCI-H838 | 0.23
NCI-H1650 | 0.388
NCI-H2009 | 0.649
NCI-H1993 | 0.629
PC-14 | 0.588
LCLC-103H | 0.411
NCI-H596 | 0.989
NCI-H2228 | 0.253
EMC-BAC-2 | 0.249
NCI-H2087 | 0.219
HCC-366 | 0.0526
NCI-H1666 | 0.597
NCI-H647 | 0.191
LK-2 | 0.179
NCI-H2126 | 0.75
NCI-H2342 | 0.456

Cell Line | relative viability
SK-MES-1 | 0.66
H3255 | 0.604
COR-L23 | 0.179
COR-L 105 | 0.387
LOU-NH91 | 0.662
ChaGo-K-1 | 0.292
NCI-H2170 | 0.739
NCI-H3122 | 0.44
HOP-62 | 0.34
HCC-44 | 1.12
SW 900 | 0.542
LU99A | 0.226
BEN | 0.487
HARA | 0.182
NCI-H1648 | 0.358
HCC-78 | 0.347
NCI-H441 | 0.585

compound: C(C(=O)C(=O)O)Br [Bromopyruvate] + Cc1nc(Nc2ncc(C(=O)Nc3c(C)cccc3Cl)s2)cc(N2CCN(CCO)CC2)n1 [Dasatinib] (partner 0.075 µM); assay: as above; details: first compound 1 µM
Procedure, shortened: as §1

Cell Line | relative viability
NCI-H522 | 0.856
NCI-H1623 | 0.574
NCI-H838 | 0.325
NCI-H1650 | 0.309
NCI-H2009 | 0.281
NCI-H1993 | 0.826
PC-14 | 0.307
LCLC-103H | 0.479
NCI-H596 | 0.6
NCI-H2228 | 0.464
EMC-BAC-2 | 0.317
NCI-H2087 | 0.807
HCC-366 | 0.614
NCI-H1666 | 0.847
NCI-H647 | 0.156
LK-2 | 0.284
